In patent publication US5556744A, “Methods and compositions for diagnosing and treating certain HIV infected patients” (The Trustees of the University of Pennsylvania, priority 1994, dated 1996):

Assays:
[1] = test system: maternal sera (antibodies); assay: ELISA peptide-binding of maternal sera (Example 6); parameters: species or system human; conditions: for Number of Non-Transmitters which bound to peptide / Percent of Non-Transmitters which bound to peptide: N = 12; for Number of Transmitters which bound to peptide / Percent of Transmitters which bound to peptide: N = 4
Text: A total of 86 maternal sera samples obtained from patients of the Hospital of the University of Pennsylvania during the third trimester of pregnancy were used in this study 58 (67%) were non-transmitters and 28 (33%) were transmitters. This is approximately consistent with the national average (i.e. a rate of transmission between 25-30%). Transmission status was based upon serological or molecular diagnosis of children (at an age of greater than 15 months) born to these mothers. Because of the constraints on the volume of serum available for many of these samples, not all sera were analyzed with all the peptides. However, each sera sample was run with at least 40 peptides.
These peptides are of an average length of 16 amino acids and covered the entire external as well as the transmembrane glycoprotein of HIV-1. Peptide binding was analyzed by ELISA essentially as described in Example 3.
The results of one study, using some of the peptides identified above among others, is provided in Table 12, which illustrates the number and percent of non-transmitters which bound to the tested peptide. The percentage designation refers to the percentage of sera samples which bound to a particular peptide. A value of greater than 0% means that at least one of the samples bound to the particular peptides.

[2] = test system: maternal HIV+ sera (antibodies); assay: RIA / ELISA binding of maternal HIV+ sera to gp120 and gp41 peptides (Example 3); parameters: species or system human
Outline: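 Maternal sera, diluted 1:50 and 1:500, were bound overnight at 4°C to peptides immobilized at 10 μg/ml (pH 9.6 carbonate) and blocked with 1% BSA. Read-out was ¹²⁵I-labelled anti-human IgG counts or HRP-TMB OD450. Signal with peptide minus without was expressed relative to seronegative serum.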

[3] = Serum No. 1, Non-Transmission Group
[4] = Serum No. 2, Non-Transmission Group
[5] = Serum No. 3, Non-Transmission Group
[6] = Serum No. 4, Transmission Group
[7] = Serum No. 5, Transmission Group
[8] = Serum No. 6, Non-Transmission Group
[9] = Serum No. 7, Non-Transmission Group
[10] = Serum No. 8, Non-Transmission Group
[11] = Serum No. 9, Non-Transmission Group
[12] = Serum No. 10, Transmission Group
[13] = Serum No. 11, Non-Transmission Group
[14] = Serum No. 12, Non-Transmission Group
[15] = Serum No. 13, Transmission Group
[16] = Serum No. 14, Transmission Group
[17] = Serum No. 15, Transmission Group
[18] = Serum No. 16, Non-Transmission Group
[19] = Serum No. 17, Non-Transmission Group
[20] = Serum No. 18, Non-Transmission Group
[21] = Serum No. 19, Transmission Group
[22] = Serum No. 20, Non-Transmission Group

For “41-11: gp41 peptide, amino acids 541-564, HIV strain MN, SEQ ID NO: 157 (QARQLLSGIVQQQNNLLRAIEAQQ) [Peptide 41-11]”, the “Number of Non-Transmitters which bound to peptide” value [1] was 0, the “Percent of Non-Transmitters which bound to peptide” value [1] was 0% and the “Number of Transmitters which bound to peptide” value [1] was 0. The “Percent of Transmitters which bound to peptide” value [1] was 0%.

For “41-13: gp41 peptide, amino acids 616-632, HIV strain BRU, SEQ ID NO: 153 (NASWSNKSLEQIWNNMT) [Peptide 41-13]”, the “Number of Non-Transmitters which bound to peptide” value [1] was 0, the “Percent of Non-Transmitters which bound to peptide” value [1] was 0% and the “Number of Transmitters which bound to peptide” value [1] was 0. The “Percent of Transmitters which bound to peptide” value [1] was 0%.

In the case of “41-21: gp41 peptide, amino acids 661-683, HIV strain IIIB, SEQ ID NO: 152 (LELDKWASLWNWFNITNWLWYIK) [Peptide 41-21]”, the “Number of Non-Transmitters which bound to peptide” value [1] is reported as 0, the “Percent of Non-Transmitters which bound to peptide” value [1] is reported as 0% and the “Number of Transmitters which bound to peptide” value [1] is reported as 0. The “Percent of Transmitters which bound to peptide” value [1] was 0%.

For “41-22: gp41 peptide, amino acids 702-720, HIV strain BH10, SEQ ID NO: 155 [Peptide 41-22]”, the “Number of Non-Transmitters which bound to peptide” value [1] was 0, the “Percent of Non-Transmitters which bound to peptide” value [1] was 0% and the “Number of Transmitters which bound to peptide” value [1] was 0. The “Percent of Transmitters which bound to peptide” value [1] was 0%.

With “105: gp120 peptide, amino acids 286-300, SEQ ID NO:112 (VQLNTSVEINCTRPN) [Peptide 105]” the “Number of Non-Transmitters which bound to peptide” value [1] was 0, the “Percent of Non-Transmitters which bound to peptide” value [1] was 0% and the “Number of Transmitters which bound to peptide” value [1] was 0. For the same substance, the “Percent of Transmitters which bound to peptide” value [1] was 0%.

In the case of VTRIVELLGRRGWEALKYWW [Peptide 57], the “Binding of maternal HIV+ serum to peptide (sera/NHS ratio)” value (shortened to “Binding … (sera/NHS ratio)”) [2, 3] is reported as “- (specific OD450 or cpm of sera sample binding to peptide divided by the specific OD450 or cpm of NHS sample binding to peptide, which value is less than 2)”, the “Binding … (sera/NHS ratio)” value [2, 4] is reported as “- (specific OD450 or cpm of sera sample binding to peptide divided by the specific OD450 or cpm of NHS sample binding to peptide, which value is less than 2)” and the “Binding … (sera/NHS ratio)” value [2, 5] is reported as “- (specific OD450 or cpm of sera sample binding to peptide divided by the specific OD450 or cpm of NHS sample binding to peptide, which value is less than 2)”. For the same substance, the “Binding … (sera/NHS ratio)” value [2, 6] was “- (specific OD450 or cpm of sera sample binding to peptide divided by the specific OD450 or cpm of NHS sample binding to peptide, which value is less than 2)”, the “Binding … (sera/NHS ratio)” value [2, 7] was “- (specific OD450 or cpm of sera sample binding to peptide divided by the specific OD450 or cpm of NHS sample binding to peptide, which value is less than 2)” and the “Binding … (sera/NHS ratio)” value [2, 8] was “- (specific OD450 or cpm of sera sample binding to peptide divided by the specific OD450 or cpm of NHS sample binding to peptide, which value is less than 2)”. The “Binding … (sera/NHS ratio)” value [2, 9] was “- (specific OD450 or cpm of sera sample binding to peptide divided by the specific OD450 or cpm of NHS sample binding to peptide, which value is less than 2)”, the “Binding … (sera/NHS ratio)” value [2, 10] was “++ (which value is greater than 3)” and the “Binding … (sera/NHS ratio)” value [2, 11] was “- (specific OD450 or cpm of sera sample binding to peptide divided by the specific OD450 or cpm of NHS sample binding to peptide, which value is less than 2)”. The “Binding … (sera/NHS ratio)” value [2, 12] was “- (specific OD450 or cpm of sera sample binding to peptide divided by the specific OD450 or cpm of NHS sample binding to peptide, which value is less than 2)”, the “Binding … (sera/NHS ratio)” value [2, 13] was “- (specific OD450 or cpm of sera sample binding to peptide divided by the specific OD450 or cpm of NHS sample binding to peptide, which value is less than 2)” and the “Binding … (sera/NHS ratio)” value [2, 14] was “- (specific OD450 or cpm of sera sample binding to peptide divided by the specific OD450 or cpm of NHS sample binding to peptide, which value is less than 2)”. The “Binding … (sera/NHS ratio)” value [2, 15] was “- (specific OD450 or cpm of sera sample binding to peptide divided by the specific OD450 or cpm of NHS sample binding to peptide, which value is less than 2)”, the “Binding … (sera/NHS ratio)” value [2, 16] was “- (specific OD450 or cpm of sera sample binding to peptide divided by the specific OD450 or cpm of NHS sample binding to peptide, which value is less than 2)” and the “Binding … (sera/NHS ratio)” value [2, 17] was “- (specific OD450 or cpm of sera sample binding to peptide divided by the specific OD450 or cpm of NHS sample binding to peptide, which value is less than 2)”. For the same substance, the “Binding … (sera/NHS ratio)” value [2, 18] was “- (specific OD450 or cpm of sera sample binding to peptide divided by the specific OD450 or cpm of NHS sample binding to peptide, which value is less than 2)”, the “Binding … (sera/NHS ratio)” value [2, 19] was “- (specific OD450 or cpm of sera sample binding to peptide divided by the specific OD450 or cpm of NHS sample binding to peptide, which value is less than 2)” and the “Binding … (sera/NHS ratio)” value [2, 20] was “- (specific OD450 or cpm of sera sample binding to peptide divided by the specific OD450 or cpm of NHS sample binding to peptide, which value is less than 2)”. For the same substance, the “Binding … (sera/NHS ratio)” value [2, 21] was “- (specific OD450 or cpm of sera sample binding to peptide divided by the specific OD450 or cpm of NHS sample binding to peptide, which value is less than 2)” and the “Binding … (sera/NHS ratio)” value [2, 22] was “+ (which value is between 2 to 3)”.

In the case of YDTEVHNVWATHACV [Peptide 94], the “Number of maternal sera binding to peptide” value ([2]; 20 maternal sera) is reported as “two”, the “Binding of maternal sera to peptide (in words)” value ([2]; Example 3) is reported as “Several maternal serum samples had reactivity” and the “Binding … (sera/NHS ratio)” value [2, 3] is reported as “++ (which value is greater than 3)”. The “Binding … (sera/NHS ratio)” value [2, 4] was “- (specific OD450 or cpm of sera sample binding to peptide divided by the specific OD450 or cpm of NHS sample binding to peptide, which value is less than 2)”, the “Binding … (sera/NHS ratio)” value [2, 5] was “++ (which value is greater than 3)” and the “Binding … (sera/NHS ratio)” value [2, 6] was “- (specific OD450 or cpm of sera sample binding to peptide divided by the specific OD450 or cpm of NHS sample binding to peptide, which value is less than 2)”. For the same substance, the “Binding … (sera/NHS ratio)” value [2, 7] was “- (specific OD450 or cpm of sera sample binding to peptide divided by the specific OD450 or cpm of NHS sample binding to peptide, which value is less than 2)”, the “Binding … (sera/NHS ratio)” value [2, 8] was “- (specific OD450 or cpm of sera sample binding to peptide divided by the specific OD450 or cpm of NHS sample binding to peptide, which value is less than 2)” and the “Binding … (sera/NHS ratio)” value [2, 9] was “- (specific OD450 or cpm of sera sample binding to peptide divided by the specific OD450 or cpm of NHS sample binding to peptide, which value is less than 2)”. The “Binding … (sera/NHS ratio)” value [2, 10] was “- (specific OD450 or cpm of sera sample binding to peptide divided by the specific OD450 or cpm of NHS sample binding to peptide, which value is less than 2)”, the “Binding … (sera/NHS ratio)” value [2, 11] was “- (specific OD450 or cpm of sera sample binding to peptide divided by the specific OD450 or cpm of NHS sample binding to peptide, which value is less than 2)” and the “Binding … (sera/NHS ratio)” value [2, 12] was “- (specific OD450 or cpm of sera sample binding to peptide divided by the specific OD450 or cpm of NHS sample binding to peptide, which value is less than 2)”. The “Binding … (sera/NHS ratio)” value [2, 13] was “- (specific OD450 or cpm of sera sample binding to peptide divided by the specific OD450 or cpm of NHS sample binding to peptide, which value is less than 2)”, the “Binding … (sera/NHS ratio)” value [2, 14] was “- (specific OD450 or cpm of sera sample binding to peptide divided by the specific OD450 or cpm of NHS sample binding to peptide, which value is less than 2)” and the “Binding … (sera/NHS ratio)” value [2, 15] was “- (specific OD450 or cpm of sera sample binding to peptide divided by the specific OD450 or cpm of NHS sample binding to peptide, which value is less than 2)”. The “Binding … (sera/NHS ratio)” value [2, 16] was “- (specific OD450 or cpm of sera sample binding to peptide divided by the specific OD450 or cpm of NHS sample binding to peptide, which value is less than 2)”, the “Binding … (sera/NHS ratio)” value [2, 17] was “- (specific OD450 or cpm of sera sample binding to peptide divided by the specific OD450 or cpm of NHS sample binding to peptide, which value is less than 2)” and the “Binding … (sera/NHS ratio)” value [2, 18] was “- (specific OD450 or cpm of sera sample binding to peptide divided by the specific OD450 or cpm of NHS sample binding to peptide, which value is less than 2)”. The “Binding … (sera/NHS ratio)” value [2, 19] was “- (specific OD450 or cpm of sera sample binding to peptide divided by the specific OD450 or cpm of NHS sample binding to peptide, which value is less than 2)”, the “Binding … (sera/NHS ratio)” value [2, 20] was “- (specific OD450 or cpm of sera sample binding to peptide divided by the specific OD450 or cpm of NHS sample binding to peptide, which value is less than 2)” and the “Binding … (sera/NHS ratio)” value [2, 21] was “- (specific OD450 or cpm of sera sample binding to peptide divided by the specific OD450 or cpm of NHS sample binding to peptide, which value is less than 2)”. The “Binding … (sera/NHS ratio)” value [2, 22] was “- (specific OD450 or cpm of sera sample binding to peptide divided by the specific OD450 or cpm of NHS sample binding to peptide, which value is less than 2)” and the “Number of binding maternal sera from the transmission group” value ([2]; vertical transmission group (7 sera)) was “neither”.
